In US9765105B2, “Macrolide compound” (Pulike Biological Engineering, Inc., priority 2013, dated 2017):

Experiments:
Assay in all cases: in vitro susceptibility, MIC by mini broth dilution
Type in all cases: cell-based
[1] = test system: Staphylococcus aureus CVCC26003; conditions: strain CVCC26003
Procedure, shortened: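 MICs were determined by mini broth dilution under NCCLS standards in CAMHB, using revived S. aureus CVCC26003 subcultured 20 h at 35° C. Compounds were two-fold serially diluted in DMSO across 11 wells, with duplicate rows. Bacterial suspension was diluted 1:200 in medium before inoculation.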

Haemophilus parasuis = test system: Haemophilus parasuis
Procedure, shortened: (§1)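 Following the NCCLS standard, each compound is serially halved in DMSO to give 11 concentrations, run in duplicate alongside a control well. Inocula come from colonies grown 20 h at 35° C and are diluted 1:200 into broth; MIC is taken by mini broth dilution.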

[2] = test system: Actinobacillus pleuropneumoniae CVCC262; conditions: strain CVCC262
Procedure, shortened: as §1

[3] = test system: Streptococcus equines CVCC556; conditions: strain CVCC556
Procedure, shortened: as §1

[4] = test system: Pasteurella multocida CVCC399; conditions: strain CVCC399
Procedure, shortened: as §1

Row | Structure (SMILES) | MIC values, Staphylococcus aureus CVCC26003 [1] | MIC values, Haemophilus parasuis (Haemophilus parasuis) | MIC values, Actinobacillus pleuropneumoniae CVCC262 [2] [ug/mi] | MIC values, Streptococcus equines CVCC556 [3] | MIC values, Pasteurella multocida CVCC399 [4]
1 | CC[C@H]1OC(=O)[C@H](C)[C@@H](O[C@H]2C[C@@](C)(OC)[C@](O)(Cn3ccnc3)[C@H](C)O2)[C@H](C)[C@@H](O[C@@H]2O[C@H](C)C[C@H](N(C)C)[C@H]2O)[C@](C)(O)C[C@@H](C)NC[C@H](C)[C@@H](O)[C@]1(C)O [syzx-9, (2R,3S,4R,5S,8R,10R,11R,12S,13S,14R)-13-[(2,6-dideoxy-3-C-methyl-3-O-methyl-4-C-[(imidazolyl)methyl]-α-L-ribopyranosyl)oxy]-2-ethyl-3,4,10-trihydroxy-3,5,8,10,12,14-hexamethyl-11-[[3,4,6-trideoxy-3-(dimethylamino)-β-D-xylo-hexopyranosy]oxy]-1-oxa-7-azacyclopentadecan-15-one] | ≦0.25 ug/mi | ≦0.25 ug/mi | 0.5 | ≦0.25 ug/mi | ≦0.25 ug/mi
2 | CCCN1C[C@H](C)[C@@H](O)[C@](C)(O)[C@@H](CC)OC(=O)[C@H](C)[C@@H](O[C@H]2C[C@@](C)(OC)[C@](O)(CNC(C)CCCN(CC)CC)[C@H](C)O2)[C@H](C)[C@@H](O[C@@H]2O[C@H](C)C[C@H](N(C)C)[C@H]2O)[C@](C)(O)C[C@H]1C (stereo partly shown) [syzx-159] | 0.5 ug/mi | 0.25 ug/mi | 0.25 | 0.25 ug/mi | 0.5 ug/mi
3 | CC[C@H]1OC(=O)[C@H](C)[C@@H](OC2CC(C)(OC)C(O)(CNC(C)CC(=O)O)C(C)O2)[C@H](C)[C@@H](O[C@@H]2O[C@H](C)C[C@H](N(C)C)[C@H]2O)[C@](C)(O)C[C@@H](C)NC[C@H](C)[C@@H](O)[C@]1(C)O (stereo partly drawn) [syzx-50, 3-({(2R,3S,4R,5S,8R,10R,11R,12S,13S,14R)-6-[-11-[[3,4,6-trideoxy-3-(dimethylamino)-β-D-xylo-hexopyranosy]oxy]-2-ethyl-3,4,10-trihydroxy-3,5,8,10,12,14-hexamethyl-1-oxa-7-azacyclopentadecan-15-one-13-yl-oxy]-3-hydroxy-4-methoxy-2,4-dimethyl-tetrahydropyran-3-yl-methyl}-amino)-butyric acid] | 1 ug/mi | 0.5 ug/mi | 0.5 | 1 ug/mi | 1 ug/mi
4 | CC[C@H]1OC(=O)[C@H](C)[C@@H](O[C@H]2C[C@@](C)(OC)[C@](O)(C=NNc3ccccc3)[C@H](C)O2)[C@H](C)[C@@H](O[C@@H]2O[C@H](C)C[C@H](N(C)C)[C@H]2O)[C@](C)(O)C[C@@H](C)NC[C@H](C)[C@@H](O)[C@]1(C)O [syzx-73, (2R,3S,4R,5S,8R,10R,11R,12S,13S,14R)-13-[(2,6-dideoxy-3-C-methyl-3-O-methyl-4-C-[(phenylhydrazono)-methyl]-α-L-ribopyranosyl)oxy]-2-ethyl-3,4,10-trihydroxy-3,5,8,10,12,14-hexamethyl-11-[[3,4,6-trideoxy-3-(dimethylamino)-β-D-xylo-hexopyranosy]oxy]-1-oxa-7-azacyclopentadecan-15-one] | 1 ug/mi | 1 ug/mi | 1 | 0.5 ug/mi | 2 ug/mi
5 | CCCN1C[C@H](C)[C@@H](O)[C@](C)(O)[C@@H](CC)OC(=O)[C@H](C)[C@@H](O[C@H]2C[C@@](C)(OC)[C@](O)(CNCCCCO)[C@H](C)O2)[C@H](C)[C@@H](O[C@@H]2O[C@H](C)C[C@H](N(C)C)[C@H]2O)[C@](C)(O)C[C@H]1C [syzx-133] | 1 ug/mi | 0.5 ug/mi | 1 | 0.5 ug/mi | 2 ug/mi
6 | C#CC=C(C)NC[C@]1(O)[C@H](C)O[C@@H](O[C@H]2[C@H](C)[C@@H](O[C@@H]3O[C@H](C)C[C@H](N(C)C)[C@H]3O)[C@](C)(O)C[C@@H](C)NC[C@H](C)[C@@H](O)[C@](C)(O)[C@@H](CC)OC(=O)[C@@H]2C)C[C@@]1(C)OC [syzx-62] | 0.5 ug/mi | ≦0.25 ug/mi | 8 | ≦0.25 ug/mi | 0.5 ug/mi
7 | CC[C@H]1OC(=O)[C@H](C)[C@@H](O[C@H]2C[C@@](C)(OC)[C@](O)(CNc3ccc(F)cn3)[C@H](C)O2)[C@H](C)[C@@H](O[C@@H]2O[C@H](C)C[C@H](N(C)C)[C@H]2O)[C@](C)(O)C[C@@H](C)NC[C@H](C)[C@@H](O)[C@]1(C)O [syzx-86, (2R,3S,4R,5S,8R,10R,11R,12S,13S,14R)-13-[(2,6-dideoxy-3-C-methyl-3-O-methyl-4-C-[(5-fluoropyridin-2-yl-amino)-methyl]-α-L-ribopyranosyl)oxy]-2-ethyl-3,4,10-trihydroxy-3,5,8,10,12,14-hexamethyl-11-[[3,4,6-trideoxy-3-(dimethylamino)-β-D-xylo-hexopyranosy]oxy]-1-oxa-7-azacyclopentadecan-15-one] | ≦0.25 ug/mi | ≦0.25 ug/mi | 2 | ≦0.25 ug/mi | 0.25 ug/mi
8 | CCCN1CC(C)C(O)C(C)(O)C(CC)OC(=O)C(C)C(OC2CC(C)(OC)C(O)(CNNc3ccccc3)C(C)O2)C(C)C(OC2OC(C)CC(N(C)C)C2O)C(C)(O)CC1C (stereo not shown) [syzx-173] | 2 ug/mi | 1 ug/mi | 1 | 0.25 ug/mi | 4 ug/mi
9 | CC[C@H]1OC(=O)[C@H](C)[C@@H](O[C@H]2C[C@@](C)(OC)[C@](O)(CNCc3ccc(F)cc3F)[C@H](C)O2)[C@H](C)[C@@H](O[C@@H]2O[C@H](C)C[C@H](N(C)C)[C@H]2O)[C@](C)(O)C[C@@H](C)NC[C@H](C)[C@@H](O)[C@]1(C)O [syzx-31] | ≦0.25 ug/mi | ≦0.25 ug/mi | 1 | ≦0.25 ug/mi | ≦0.25 ug/mi
10 | CC[C@H]1OC(=O)[C@H](C)[C@H](O[C@H]2C[C@@](C)(OC)[C@](O)(CNCCc3ccncc3)[C@H](C)O2)[C@H](C)[C@@H](O[C@@H]2O[C@H](C)C[C@H](N(C)C)[C@H]2O)[C@](C)(O)C[C@@H](C)NC[C@H](C)[C@@H](O)[C@]1(C)O [syzx-64] | ≦0.25 ug/mi | ≦0.25 ug/mi | 0.5 | 0.25 ug/mi | 0.25 ug/mi

Continued, values first:

Row | MIC values, Staphylococcus aureus CVCC26003 [1] | MIC values, Haemophilus parasuis (Haemophilus parasuis) | MIC values, Actinobacillus pleuropneumoniae CVCC262 [2] [ug/mi] | MIC values, Streptococcus equines CVCC556 [3] | MIC values, Pasteurella multocida CVCC399 [4] | Structure (SMILES)
11 | 0.25 ug/mi | 0.25 ug/mi | 0.25 | 0.25 ug/mi | 1 ug/mi | CCCN1C[C@H](C)[C@@H](O)[C@](C)(O)[C@@H](CC)OC(=O)[C@H](C)[C@@H](O[C@H]2C[C@@](C)(OC)[C@](O)(CNc3ccccc3)[C@H](C)O2)[C@H](C)[C@@H](O[C@@H]2O[C@H](C)C[C@H](N(C)C)[C@H]2O)[C@](C)(O)C[C@H]1C [syzx-104]
12 | ≦0.25 ug/mi | ≦0.25 ug/mi | 2 | ≦0.25 ug/mi | 0.25 ug/mi | CC[C@H]1OC(=O)[C@H](C)[C@@H](O[C@H]2C[C@@](C)(OC)[C@](O)(CNCc3ccc(Cl)cc3)[C@H](C)O2)[C@H](C)[C@@H](O[C@@H]2O[C@H](C)C[C@H](N(C)C)[C@H]2O)[C@](C)(O)C[C@@H](C)NC[C@H](C)[C@@H](O)[C@]1(C)O [syzx-20, (2R,3S,4R,5S,8R,10R,11R,12S,13S,14R)-13-[(2,6-dideoxy-3-C-methyl-3-O-methyl-4-C-[(4-chlorolbenzylamino)methyl]-α-L-ribopyranosyl)oxy]-2-ethyl-3,4,10-trihydroxy-3,5,8,10,12,14-hexamethyl-11-[[3,4,6-trideoxy-3-(dimethylamino)-β-D-xylo-hexopyranosy]oxy]-1-oxa-7-azacyclopentadecan-15-one]
13 | 0.25 ug/mi | 0.25 ug/mi | 0.25 | 0.25 ug/mi | 1 ug/mi | CCCN1C[C@H](C)[C@@H](O)[C@](C)(O)[C@@H](CC)OC(=O)[C@H](C)[C@@H](O[C@H]2C[C@@](C)(OC)[C@](O)(CNCc3ccc(F)cc3)[C@H](C)O2)[C@H](C)[C@@H](O[C@@H]2O[C@H](C)C[C@H](N(C)C)[C@H]2O)[C@](C)(O)C[C@H]1C [syzx-108]
14 | 0.25 ug/mi | 0.25 ug/mi | 0.25 | 0.25 ug/mi | 0.5 ug/mi | CCCN1C[C@H](C)[C@@H](O)[C@](C)(O)[C@@H](CC)OC(=O)[C@H](C)[C@@H](O[C@H]2C[C@@](C)(OC)[C@](O)(CNC(CC)CO)[C@H](C)O2)[C@H](C)[C@@H](O[C@@H]2O[C@H](C)C[C@H](N(C)C)[C@H]2O)[C@](C)(O)C[C@H]1C (stereo partly shown) [syzx-151]
